Reference: patent US11229618B2 (Amarin Pharmaceuticals Ireland Limited, priority 2012, dated 2022)

Assay: AAMI 6-week study: essential fatty acid parameters in RBC (gas chromatography)
Type: in vivo, human
Conditions: for AA RBC Mean change from Baseline / DHA RBC Mean change from Baseline / AA RBC 1 or 2 g versus 4 g LS Mean / DHA RBC 1 or 2 g versus 4 g LS Mean: AAMI; for AA RBC Mean change from Baseline / DHA RBC Mean change from Baseline: mean (SD); for DGLA 1 or 2 g versus 4 g, LS Mean / DPAn-3 1 or 2 g versus 4 g, LS Mean / EPA/AA 1 or 2 g versus 4 g, LS Mean / DGLA Mean change from Baseline, Mean (SD) / DPAn-3 Mean change from Baseline, Mean (SD) / EPA/AA Mean change from Baseline, Mean (SD) / DGLA Baseline Mean (SD) / DPAn-3 Baseline Mean (SD) / EPA/AA Baseline Mean (SD): RBC
Protocol: A single-center, 6-week, double-blind, randomizes, parallel-group, placebo-controlled, dose-ranging pilot study was performed to evaluate the efficacy, tolerability, and safety of >96% ethyl-EPA in subjects with subjective and objective memory impairment according to generally accepted criteria for Age-Associated Memory Impairment (“AAMI”). The primary objective of the study was to determine the effect of >96% ethyl-EPA 1 g, 2 g, and 4 g daily, compared to placebo, on cognitive performance in subjects with AAMI.
Ninety-four subjects were randomized into one of six groups: 1 g E-EPA daily (n=23), 2 g E-EPA daily (n=24), 4 g E-EPA daily (n=24), 1 g placebo daily (n=7), 2 g placebo daily (n=8), and 4 g placebo daily (n=8). E-EPA was provided as 500 mg soft gel capsules containing>96% E-EPA and 0.2% dl-α-tocopherol as an antioxidant. Placebo capsules contained 467 mg of liquid paraffin and 0.2% dl-α-tocopherol. Ninety-one subjects completed the study. Two subjects in the 2 g E-EPA group and one subject in the 2 g placebo group discontinued the study.
Blood samples (10 mL) were collected at Visit 1 (screening) and at Visits 4, 5 and 6. Analysis was performed by MSR Lipid Analysis, Scottish Crop Research Institute, Dundee, UK. The screening sample acted as baseline for the EFA measurements. Lipid was extracted from plasma, serum and RBC suspensions and converted into fatty acid methyl esters which were analyzed by gas chromatography to give fatty acid profiles as micrograms fatty acid per gram of sample (μgFA/g) and normalized area percent.
RBC and plasma EFA data were collected at baseline, Day 14, 28 and 42 and summarized by visit for each treatment group. Change from baseline and percent change from baseline were also summarized. ANCOVA comparison of ethyl-EPA dose groups and ethyl-EPA versus placebo was performed.

[1] = Ethyl-EPA 1 g versus 4 g, p-value <0.001

CC/C=C\C/C=C\C/C=C\C/C=C\C/C=C\CCCC(=O)OCC [IPE, all-cis eicosa-5,8,11,14,17-pentaenoic acid ethyl ester]
AA RBC Mean change from Baseline (1 g daily, Day 14): −8.1 (21.95) μg/g | DHA RBC Mean change from Baseline (1 g daily, Day 14): −4.6 (9.76) μg/g | AA RBC Mean change from Baseline (1 g daily, Day 28): −17.0 (20.69) μg/g | DHA RBC Mean change from Baseline (1 g daily, Day 28): −6.4 (11.57) μg/g | AA RBC Mean change from Baseline (1 g daily, Day 42): −14.2 (27.69) μg/g | DHA RBC Mean change from Baseline (1 g daily, Day 42): −7.0 (12.20) μg/g | AA RBC 1 or 2 g versus 4 g LS Mean (1 g versus 4 g): 8.4 µg/g | DHA RBC 1 or 2 g versus 4 g LS Mean (1 g versus 4 g): 1.0 µg/g | AA RBC Mean change from Baseline (2 g daily, Day 14): −3.1 (25.84) μg/g | DHA RBC Mean change from Baseline (2 g daily, Day 14): −2.0 (9.46) μg/g | AA RBC Mean change from Baseline (2 g daily, Day 28): −14.1 (26.89) μg/g | DHA RBC Mean change from Baseline (2 g daily, Day 28): −6.2 (9.34) μg/g | AA RBC Mean change from Baseline (2 g daily, Day 42): −18.8 (25.62) μg/g | DHA RBC Mean change from Baseline (2 g daily, Day 42): −6.3 (9.42) μg/g | AA RBC 1 or 2 g versus 4 g LS Mean (2 g versus 4 g): 9.8 µg/g | DHA RBC 1 or 2 g versus 4 g LS Mean (2 g versus 4 g): 1.0 µg/g | AA RBC Mean change from Baseline (4 g daily, Day 14): −15.7 (26.76) μg/g | DHA RBC Mean change from Baseline (4 g daily, Day 14): −6.9 (9.13) μg/g | AA RBC Mean change from Baseline (4 g daily, Day 28): −22.8 (29.56) μg/g | DHA RBC Mean change from Baseline (4 g daily, Day 28): −8.7 (11.63) μg/g | AA RBC Mean change from Baseline (4 g daily, Day 42): −34.4 (31.44) μg/g | DHA RBC Mean change from Baseline (4 g daily, Day 42): −13.8 (13.76) μg/g | DGLA 1 or 2 g versus 4 g, LS Mean (Ethyl-EPA 1 g versus 4 g, p-value 0.027): 1.5 µg/g | DPAn-3 1 or 2 g versus 4 g, LS Mean [1]: -6.2 µg/g | EPA/AA 1 or 2 g versus 4 g, LS Mean [1]: −0.18 | DGLA Mean change from Baseline, Mean (SD) (Ethyl-EPA 1 g, Day 14): −2.7 (3.82) μg/g | DPAn-3 Mean change from Baseline, Mean (SD) (Ethyl-EPA 1 g, Day 14): 0.9 (5.03) μg/g | EPA/AA Mean change from Baseline, Mean (SD) (Ethyl-EPA 1 g, Day 14): 0.1 (0.04) | DGLA Mean change from Baseline, Mean (SD) (Ethyl-EPA 1 g, Day 28): −3.8 (3.31) μg/g | DPAn-3 Mean change from Baseline, Mean (SD) (Ethyl-EPA 1 g, Day 28): 3.3 (5.42) μg/g | EPA/AA Mean change from Baseline, Mean (SD) (Ethyl-EPA 1 g, Day 28): 0.1 (0.05) | DGLA Mean change from Baseline, Mean (SD) (Ethyl-EPA 1 g, Day 42): −3.5 (4.51) μg/g | DPAn-3 Mean change from Baseline, Mean (SD) (Ethyl-EPA 1 g, Day 42): 6.5 (6.19) μg/g | EPA/AA Mean change from Baseline, Mean (SD) (Ethyl-EPA 1 g, Day 42): 0.1 (0.06) | DGLA Baseline Mean (SD) (Ethyl-EPA 1 g): 23.0 (5.19) μg/g | DPAn-3 Baseline Mean (SD) (Ethyl-EPA 1 g): 34.1 (5.43) μg/g | EPA/AA Baseline Mean (SD) (Ethyl-EPA 1 g): 0.1 (0.07) | DPAn-3 1 or 2 g versus 4 g, LS Mean (Ethyl-EPA 2 g versus 4 g, p-value 0.002): -2.5 µg/g | DGLA 1 or 2 g versus 4 g, LS Mean (Ethyl-EPA 2 g versus 4 g, p-value 0.032): 1.5 µg/g | EPA/AA 1 or 2 g versus 4 g, LS Mean (Ethyl-EPA 2 g versus 4 g, p-value <0.001): −0.11 | DGLA Mean change from Baseline, Mean (SD) (Ethyl-EPA 2 g, Day 14): −2.6 (3.54) μg/g | DPAn-3 Mean change from Baseline, Mean (SD) (Ethyl-EPA 2 g, Day 14): 5.6 (6.28) μg/g | EPA/AA Mean change from Baseline, Mean (SD) (Ethyl-EPA 2 g, Day 14): 0.2 (0.04) | DGLA Mean change from Baseline, Mean (SD) (Ethyl-EPA 2 g, Day 28): −4.5 (3.58) μg/g | DPAn-3 Mean change from Baseline, Mean (SD) (Ethyl-EPA 2 g, Day 28): 9.4 (6.74) μg/g | EPA/AA Mean change from Baseline, Mean (SD) (Ethyl-EPA 2 g, Day 28): 0.02 (0.06) | DGLA Mean change from Baseline, Mean (SD) (Ethyl-EPA 2 g, Day 42): −5.3 (3.65) μg/g | DPAn-3 Mean change from Baseline, Mean (SD) (Ethyl-EPA 2 g, Day 42): 13.2 (7.23) μg/g | EPA/AA Mean change from Baseline, Mean (SD) (Ethyl-EPA 2 g, Day 42): 0.3 (0.06) | DGLA Baseline Mean (SD) (Ethyl-EPA 2 g): 23.0 (5.76) μg/g | DPAn-3 Baseline Mean (SD) (Ethyl-EPA 2 g): 33.2 (4.51) μg/g | EPA/AA Baseline Mean (SD) (Ethyl-EPA 2 g): 0.1 (0.06) | DGLA Mean change from Baseline, Mean (SD) (Ethyl-EPA 4 g, Day 14): −5.3 (4.10) μg/g | DPAn-3 Mean change from Baseline, Mean (SD) (Ethyl-EPA 4 g, Day 14): 5.4 (5.38) μg/g | EPA/AA Mean change from Baseline, Mean (SD) (Ethyl-EPA 4 g, Day 14): 0.3 (0.07) | DGLA Mean change from Baseline, Mean (SD) (Ethyl-EPA 4 g, Day 28): −7.1 (4.63) μg/g | DPAn-3 Mean change from Baseline, Mean (SD) (Ethyl-EPA 4 g, Day 28): 12.4 (6.98) μg/g | EPA/AA Mean change from Baseline, Mean (SD) (Ethyl-EPA 4 g, Day 28): 0.4 (0.11) | DGLA Mean change from Baseline, Mean (SD) (Ethyl-EPA 4 g, Day 42): −8.0 (4.98) μg/g | DPAn-3 Mean change from Baseline, Mean (SD) (Ethyl-EPA 4 g, Day 42): 16.2 (10.07) μg/g | EPA/AA Mean change from Baseline, Mean (SD) (Ethyl-EPA 4 g, Day 42): 0.4 (0.14) | DGLA Baseline Mean (SD) (Ethyl-EPA 4 g): 24.0 (5.77) μg/g | DPAn-3 Baseline Mean (SD) (Ethyl-EPA 4 g): 34.5 (4.34) μg/g
